From patent US8853173B2, “Synthetic glycolipid and use thereof” (RIKEN, priority 2010, dated 2014)

Experiments:
NKT cells [1] = settings: cited from earlier work
NKT cells [2] = settings: cited from earlier work; remark: listed apart in the source
NKT cells [3] = settings: cited from earlier work; remark: listed apart in the source
NKT cells [4] = settings: cited from earlier work; remark: listed apart in the source
NKT cells [5] = settings: cited from earlier work; remark: listed apart in the source
NKT cells [6] = assay: Influence of synthetic glycolipid on cytokine production of NKT cells: IFN-γ in mouse plasma after tail vein administration; assay type: in vivo, C57BL/6 mice; settings: 100 μg/kg body weight, Cytometric Bead Array, data in FIG. 1-3
Experimental: A solution of each of α-GalCer (KRN7000), compound F and compound H in dimethyl sulfoxide (DMSO) was prepared at a concentration of 1 mg/mL. The above-mentioned DMSO solution was diluted with saline (manufactured by Otsuka Pharmaceutical Co., Ltd.) containing 0.5% tween 20 (Bio-Rad) such that the dose became 100 μg/kg body weight when 200 μL per mouse was administered from the tail vein.
The prepared solutions (200 μL) of compounds F and H were respectively injected to C57BL/6 mice (5 mice per group) from the tail vein. As a control substance, α-GalCer (KRN7000) was used, and a solution (200 μL) of α-GalCer (KRN7000) prepared in the same manner such that the dose became 100 μg/kg body weight was injected into the tail vein. The group administered with saline (200 μL) containing 0.5% tween 20 (medium) was used as a negative control. The blood (80 μL) immediately before administration and after administration (after lapse of the time indicated in FIGS. 1-3) was collected from the orbital sinus and plasma was prepared.
The IFN-γ content of the plasma before administration and after administration (after lapse of the time indicated in FIG. 1) was measured by Cytometric Bead Array system (BD Biosciences) which is one of the ELISA methods. The measurement results (mean) of the production amount of IFN-γ and the standard deviation thereof (STDEV) are shown in FIG. 1.

NKT cells of mouse = settings: cited from earlier work
human NKT cells = settings: cited from earlier work

## CCCCCCCCCCCCCCCCCCCCCCCCC(F)(F)C(=O)N[C@@H](COC1OC(CO)C(O)C(O)C1O)[C@H](O)[C@H](O)CCCCCCCCCCCCCC (some centres unmarked) [compound 6]
NKT cells [1]
  type of cytokine production induced: induce production of mostly Th2 type cytokines such as IL-4

## CCCCCCCCCCCCCCCCCCCCCCCCCC(=O)N[C@@H](COC1CC(CO)C(O)C(O)C1O)[C@H](O)[C@H](O)CCCCCCCCCCCCCC (some centres unmarked) [RCAI-56]
NKT cells [2]
  activity in the system of mouse: strong activity
NKT cells [3]
  activity in the system of human (in vitro): strong activity
NKT cells [4]
  NKT cell activation / IFN-γ production: strongly activates NKT cells and induces production of a large amount of IFN-γ

## CCCCCCCCCCCCCCCCCCCCCCCCc1cn([C@@H](COC2OC(CO)C(O)C(O)C2O)[C@H](O)[C@H](O)CCCCCCCCCCCCCC)nn1 (some centres unmarked) [compound 7]
NKT cells [1]
  type of cytokine production induced: induce production of mostly Th2 type cytokines such as IL-4

## CCCCCCCCCCCCCCCCCCCCCCCCCC(=O)N[C@@H](COC1OC(CO)C(O)C(O)C1O)[C@H](O)[C@H](O)CCCCCCCCCCCCCC (some centres unmarked) [KRN7000]
NKT cells [5]
  immunostimulatory activity among synthesized analogs: shows the strongest activity

## CCCCCCCCCCCCCCCCCCCCCCCCNC(=O)N[C@@H](CO[C@H]1O[C@H](CO)[C@H](O)[C@H](O)[C@H]1O)[C@H](O)[C@H](O)CCCCCCCCCCCCCC [compound F, (2S,3S,4R)-1-(α-D-galactopyranosyloxy)-2-(tetracosylureido)-3,4-octadecanediol]
NKT cells [6]
  IFN-γ production compared with α-GalCer (KRN7000): selectively induced IFN-γ production in larger amounts than α-GalCer (KRN7000)

## CCCCCCCCCCCCCCCCCCCCCCCCCC(=O)N[C@@H](COC1OC(COC)C(O)C(O)C1O)[C@H](O)[C@H](O)CCCCCCCCCCCCCC (some centres unmarked) [RCAI-61]
NKT cells [2]
  activity in the system of mouse: strong activity
NKT cells [3]
  activity in the system of human (in vitro): strong activity
NKT cells [4]
  NKT cell activation / IFN-γ production: induces production of IFN-γ in large amounts

## CCCCCCCCCCCCCCCCCCCCCCCCNC(=O)N[C@@H](CO[C@H]1O[C@H](COC)[C@H](O)[C@H](O)[C@H]1O)[C@H](O)[C@H](O)CCCCCCCCCCCCCC [compound H, (2S,3S,4R)-1-(6-O-methyl-α-D-galactopyranosyloxy)-2-(tetracosylureido)-3,4-octadecanediol]
NKT cells [6]
  IFN-γ production compared with α-GalCer (KRN7000): selectively induced IFN-γ production in larger amounts than α-GalCer (KRN7000)

## CCCCCCCCCCCCCCCCCCCCCCCCCC(=O)N[C@@H](CCC1OC(CO)C(O)C(O)C1O)[C@H](O)[C@H](O)CCCCCCCCCCCCCC (stereo partly drawn) [α-C-GalCer]
NKT cells of mouse
  activation of mouse NKT cells and IFN-γ production: strongly activates NKT cells of mouse and preferentially produces IFN-γ
Human NKT cells
  activity in vitro on human NKT cells: hardly shows activity

## CCCCCCCCCCCCCCCCS(=O)(=O)N[C@@H](COC1OC(CO)C(O)C(O)C1O)[C@H](O)[C@H](O)CCCCCCCCCCCCCC (some centres unmarked) [compound 5]
NKT cells [1]
  type of cytokine production induced: induce production of mostly Th2 type cytokines such as IL-4
